{"source": "PubChem BioAssay AID1996"}
{"conditions": "buffer; pH 7.4; 200.0 µM", "units": {"solubility kinetic": "µg/mL"}}
{"smiles": "CCc1cc2ccc(C)cc2nc1SCC(=O)NC1CCCC1", "solubility kinetic": 1.2}
{"smiles": "Cc1ccc(C(=O)c2ccccc2C(=O)OCC(=O)N2CCCC2)cc1", "solubility kinetic": "> 52.7"}
{"smiles": "CN(c1ccccc1)c1cc(Br)nc(Br)c1", "solubility kinetic": 0.4}
{"smiles": "COc1ccccc1CNc1ccc(Br)cn1", "solubility kinetic": 11.6}
{"smiles": "COc1ccc(CNC(=O)C2CC(C)=C(C)CC2C(=O)O)cc1OC", "note": "(centres undefined)", "solubility kinetic": "> 52.1"}
{"smiles": "O=C(COC(=O)c1cccs1)Nc1cccc(S(=O)(=O)N2CCCCC2)c1", "solubility kinetic": 9.6}
{"smiles": "Cc1ccc2oc(=O)c(/C=C(\\O)C(C)(C)C)nc2c1", "solubility kinetic": 28.3}
{"smiles": "Cn1c(-c2ccccc2)cnc1NCc1ccccc1", "solubility kinetic": 34.9}
{"smiles": "CC1(C)C(c2ccccc2)=NC(c2ccc(Br)cc2)N1O", "note": "(centres undefined)", "solubility kinetic": 3.7}
{"smiles": "CCOc1ccc(S(=O)(=O)NC2CCCCC2C)cc1", "note": "(centres undefined)", "solubility kinetic": 37.5}
{"smiles": "O=C(NC(=S)NCc1ccco1)c1ccccc1[N+](=O)[O-]", "solubility kinetic": 8.7}
{"smiles": "Cc1ccc(N2CC(O)Cn3c2nc2c3c(=O)[nH]c(=O)n2C)cc1", "note": "(centres undefined)", "solubility kinetic": 16.2}
{"smiles": "Cc1c(C=O)c2ccccc2n1Cc1ccccc1", "solubility kinetic": 2.6}
{"smiles": "O=Nc1c(O)n(Cc2ccccc2)c2ccccc12", "solubility kinetic": "> 37.8"}
{"smiles": "O=c1c2c3c(sc2nc2n1CCCCC2)C(O)CCC3", "note": "(centres undefined)", "solubility kinetic": "> 43.6"}
{"smiles": "CNC(=O)c1oc(-c2ccc(Cl)cc2)nc1C", "solubility kinetic": "> 37.6"}
{"smiles": "Cc1ccc(-c2nc(-c3ccccn3)no2)cc1[N+](=O)[O-]", "solubility kinetic": 7.4}
{"smiles": "CCN1C(=O)C(=Cc2ccc(N3CCOCC3)o2)C(=O)N(CC)C1=S", "solubility kinetic": 1.1}
{"smiles": "COc1cc(C2NC(=O)NC3=C2C(=O)OC3)cc(OC)c1OC", "note": "(centres undefined)", "solubility kinetic": "> 48"}
{"smiles": "Cn1c(-c2cccc(Br)c2)cnc1NCc1ccccc1O", "solubility kinetic": 6.3}
{"smiles": "CCCc1cc(=O)[nH]c(SCC(=O)Nc2ccc(OC)c(S(=O)(=O)N3CCCCC3)c2)n1", "solubility kinetic": 13.8}
{"smiles": "Cc1ccc(C)c(NC(=S)N2CCN(S(C)(=O)=O)CC2)c1", "solubility kinetic": "> 49.1"}
{"smiles": "CCOC(=O)c1cnc2c(ccc3ccccc32)c1Cl", "solubility kinetic": "< 0.6"}
{"smiles": "CSc1ncccc1C(=O)OCC(=O)NC1CCCc2ccccc21", "note": "(centres undefined)", "solubility kinetic": 5.5}
{"smiles": "CC(C)CC(=O)Nc1ccc(Cc2ccncc2)cc1", "solubility kinetic": "> 40.3"}
{"smiles": "N#Cc1ccccc1S(=O)(=O)Nc1ccc2c(c1)OCCO2", "solubility kinetic": "> 47.4"}
{"smiles": "O=C(/C=C/c1c(F)cccc1Cl)N1CCOCC1", "solubility kinetic": 39.8}
{"smiles": "Cc1ccc2ncccc2c1N", "solubility kinetic": "> 23.7"}
{"smiles": "O=C(CCCNC(=O)c1ccc(Cl)cc1)NCc1ccc(F)cc1", "solubility kinetic": 4.1}
{"smiles": "CCOC(=O)c1sc(=S)n(-c2ccc(OC)cc2)c1N", "solubility kinetic": 2}
{"smiles": "CC(C)c1nc2cc(C(=O)NC(C)c3cnn(C)c3)ccc2o1", "note": "(centres undefined)", "solubility kinetic": "> 46.9"}
{"smiles": "O=C1CCN(S(=O)(=O)c2ccc(Br)cc2)CCN1", "solubility kinetic": 39.1}
{"smiles": "COc1c(C)cc(S(=O)(=O)NCCN2CCOCC2)c(C)c1C", "solubility kinetic": 46.4}
{"smiles": "CCc1nnc(NC(=O)CN2CCN(S(C)(=O)=O)CC2)s1", "solubility kinetic": "> 50"}
{"smiles": "NC(=NCCc1c[nH]c2ccccc12)NC(=O)c1ccc(F)cc1", "solubility kinetic": "> 48.7"}
{"smiles": "Cc1cc(-c2csc(Nc3ccccn3)n2)ccc1F", "solubility kinetic": "< 0.2"}
{"smiles": "NC(=NCCc1ccccc1)NS(=O)(=O)c1ccccc1F", "solubility kinetic": "> 48.2"}
{"smiles": "O=C(O)C(=O)O.c1ccc(COc2cccc(CN3CCCCC3)c2)cc1", "solubility kinetic": 46.2}
{"smiles": "CC(C)c1ccccc1OCCCCN1CCCCC1", "solubility kinetic": 37.1}
{"smiles": "CCOc1ccccc1C(=O)NCCNC(=O)c1ccccc1OCC", "solubility kinetic": 40.6}
{"smiles": "O=C(CCNC(=O)c1ccco1)Nc1cccc(C(F)(F)F)c1", "solubility kinetic": "> 48.9"}
{"smiles": "Cn1cccc1C(=O)NC1CCCCC1", "solubility kinetic": "> 30.9"}
{"smiles": "NC(=O)CSc1nc(-c2ccccc2)nc2c1CCCC2", "solubility kinetic": 0.5}
{"smiles": "O=C(Nc1ccccc1F)c1cnccn1", "solubility kinetic": "> 32.6"}
{"smiles": "Cc1ccc(C(=O)Nc2ccc3c(c2)OCO3)cc1Cl", "solubility kinetic": "< 0.6"}
{"smiles": "Cc1cccc(NC(=S)N2CCN(C(=O)c3ccco3)CC2)c1", "solubility kinetic": "> 49.4"}
{"smiles": "CC(=O)c1sc(NC(=O)COc2ccc(Cl)cc2Cl)nc1C", "solubility kinetic": "< 0.4"}
{"smiles": "O=C(COC(=O)Cc1ccccc1)NCc1ccc2c(c1)OCO2", "solubility kinetic": "> 49.1"}
{"smiles": "Cc1ccc(NS(=O)(=O)c2ccc(Cl)s2)nc1", "solubility kinetic": 33.6}
{"smiles": "Cc1cc2ccccn2c1C(=O)c1cccc([N+](=O)[O-])c1", "solubility kinetic": 0.3}
{"smiles": "O=C(Nc1ccc(Cl)cc1)c1cc(-c2cccs2)on1", "solubility kinetic": "< 0.3"}
{"smiles": "O=C(O)c1ccc(S(=O)(=O)N2CCCC2)cc1", "solubility kinetic": 37.6}
{"smiles": "Clc1cccc(-c2nc(NCC3CCCO3)c3ccccc3n2)c1", "note": "(centres undefined)", "solubility kinetic": 1.2}
{"smiles": "COc1ccc(NC(=O)Cn2c([N+](=O)[O-])cnc2C)cc1Cl", "solubility kinetic": 2}
{"smiles": "O=C(Nc1cccnc1)c1ccc([N+](=O)[O-])o1", "solubility kinetic": "> 35"}
{"smiles": "C=CCc1cccc2cc(C(=O)Nc3ccc(NC(C)=O)cc3)c(=O)oc12", "solubility kinetic": 1.7}
{"smiles": "COc1ccc(Br)cc1C(=O)Nc1ccccc1N1CCCC1", "solubility kinetic": "< 0.4"}
{"smiles": "Cn1c(=O)n(C)c2cc(NC(=O)Cc3ccccc3[N+](=O)[O-])ccc21", "solubility kinetic": 47.6}
{"smiles": "CC1Cc2ccccc2N1C(=O)c1ccc2nccnc2c1", "note": "(centres undefined)", "solubility kinetic": "> 43.4"}
